# Test results as given in US9399644B2, “[1,3] dioxolo [4,5-G] quinoline-6(5H)thione derivatives as inhibitors of the late SV40 factor (LSF) for use in treating cancer” (TRUSTEES OF BOSTON UNIVERSITY, priority 2011, dated 2016).
# Assays:
# [1] = biological target: T1, LSF (Homo sapiens, UniProt Q12800); assay: LSF-dependent reporter assay (dual luciferase); type: cell-based; conditions: for LSF inhibition (result in words): NIH 3T3 cells transfected with LSF expression vector and LSF-driven firefly luciferase reporter, FIGS. 5-7
# T1 construct: expressed in transfected cells; host or cells: NIH 3T3 cells
# T1 sequence (Q12800 1-502): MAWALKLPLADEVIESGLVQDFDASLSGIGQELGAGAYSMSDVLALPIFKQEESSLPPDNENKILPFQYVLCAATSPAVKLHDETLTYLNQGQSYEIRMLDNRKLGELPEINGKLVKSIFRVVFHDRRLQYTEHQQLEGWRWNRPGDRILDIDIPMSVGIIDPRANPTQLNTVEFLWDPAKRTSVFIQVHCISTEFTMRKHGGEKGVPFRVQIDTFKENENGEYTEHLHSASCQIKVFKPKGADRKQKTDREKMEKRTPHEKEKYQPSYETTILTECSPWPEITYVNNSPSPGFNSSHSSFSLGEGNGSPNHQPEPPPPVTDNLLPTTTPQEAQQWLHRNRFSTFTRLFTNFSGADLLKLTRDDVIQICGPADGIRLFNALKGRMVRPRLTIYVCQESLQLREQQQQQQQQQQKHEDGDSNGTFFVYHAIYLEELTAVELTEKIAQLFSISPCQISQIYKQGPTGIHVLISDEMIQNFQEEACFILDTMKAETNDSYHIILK
# Procedure: NIH 3T3 cells were transfected with the expression construct pEF1α-LSF, an LSF expression vector^1,2; the reporter construct pGL3B-WT4E1b, a firefly luciferase reporter vector driven by LSF^3; phRL-TK, a control renilla luciferase reporter vector; and pEFGP, essentially as previously described^3. Five hours after transfection, either vehicle (DMSO) or compounds (VI, I and II, IV and V) were added (FIG. 7, FIG. 5 and FIG. 6, respectively), keeping DMSO at 0.5%. Cell extracts were harvested 36 hours post-transfection and firefly and renilla luciferase activities measured via a dual luciferase assay (Promega). Five μl of extract was mixed with 30 μl of luciferase assay reagent (Promega), and luminescence measured for 10 seconds using a 20/20n luminometer (Turner Biosystems). Subsequently, 30 μl of Stop & Glo reagent (Promega) was added, and luminescence also measured for 10 seconds. LSF transactivation activity is given as relative luciferase activity, the ratio of firefly to renilla activities, and normalized to the relative luciferase activity in the presence of vehicle alone. Data for this assay are shown in graphically in FIGS. 5-7.
# [2] = tested on: hepatocellular carcinoma (HCC); conditions: single treatment; cited from earlier work
LSF inhibition (result in words) [1],Compound,also measured
exhibit properties as LSF inhibitors,CCOc1ccccc1[C@H]1CC(=S)Nc2cc3c(cc21)OCO3 [Compound II],–
exhibit properties as LSF inhibitors,CCOc1ccccc1[C@@H]1CC(=S)Nc2cc3c(cc21)OCO3 [Compound I],–

# Second part, the compound before the results:
Compound,LSF inhibition (result in words) [1],also measured
"CCOc1ccccc1C1CC(=S)Nc2cc3c(cc21)OCO3 (racemic) [racemic mixture of compounds I and II, 8-(2-ethoxyphenyl)-7,8-dihydro-[1,3]dioxolo[4,5-g]quinoline-6(5H)-thione]",particularly strong LSF inhibitors,effectiveness as LSF inhibitor compared with the racemic mixture of compounds IV and V (FIG. 6) and Compound VI (FIG. 7) ([1]; FIG. 5 versus FIG. 6 and FIG. 7): about 10 times; rank among LSF inhibitors observed by the applicants ([1]; experiments thus far performed by the applicants): strongest LSF inhibitor so far observed
"CCOc1ccccc1-c1cc(=S)[nH]c2cc3c(cc12)OCO3 [Compound III, 8-(2-ethoxyphenyl)-[1,3]dioxolo[4,5-g]quinolin-6(5H)-thione]",exhibit properties as LSF inhibitors,–
CCOc1ccccc1[C@H]1Cc2nncn2-c2cc3c(cc21)OCO3 [Compound V],exhibit properties as LSF inhibitors,–
CCOc1ccccc1[C@@H]1Cc2nncn2-c2cc3c(cc21)OCO3 [IV],exhibit properties as LSF inhibitors,–
CNC(=O)c1cc(Oc2ccc(NC(=O)Nc3ccc(Cl)c(C(F)(F)F)c3)cc2)ccn1 [sorafenib],–,increase of survival [2]: 2-3 months
